Assay results reported in patent US9315498B2, “Arlethynyl derivatives” (Hoffmann-La Roche Inc., priority 2010, dated 2016).

Biological target: human mGlu5a receptor (Homo sapiens (Human), UniProt P41594)
Test: Intracellular Ca2+ mobilization assay (mGlu5 PAM)
Format: cell-based
Conditions: for EC50: HEK-293 cells stably transfected with human mGlu5a, L-glutamate added at EC20 after pre-incubation with test compound, read-out: EC50 (nM) mGlu5PAM; for Emax: maximal response in % of the maximal stimulatory effect obtained with saturating concentrations of L-glutamate, read-out: Eff. (%)
Method in brief: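 HEK-293 cells stably expressing human mGlu5a at low level were loaded with Fluo-4AM and preincubated 10–30 min at 37 °C with 11-point half-log compound dilutions. L-glutamate was then added at its daily-determined EC20 (typically around 80 μM). Peak fluorescence minus basal, normalized to maximal glutamate effect, was fitted to give EC50, Hill slope and maximal response.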

Chain of human mGlu5a receptor (P41594 other isoform, or with tags, fused parts or gaps): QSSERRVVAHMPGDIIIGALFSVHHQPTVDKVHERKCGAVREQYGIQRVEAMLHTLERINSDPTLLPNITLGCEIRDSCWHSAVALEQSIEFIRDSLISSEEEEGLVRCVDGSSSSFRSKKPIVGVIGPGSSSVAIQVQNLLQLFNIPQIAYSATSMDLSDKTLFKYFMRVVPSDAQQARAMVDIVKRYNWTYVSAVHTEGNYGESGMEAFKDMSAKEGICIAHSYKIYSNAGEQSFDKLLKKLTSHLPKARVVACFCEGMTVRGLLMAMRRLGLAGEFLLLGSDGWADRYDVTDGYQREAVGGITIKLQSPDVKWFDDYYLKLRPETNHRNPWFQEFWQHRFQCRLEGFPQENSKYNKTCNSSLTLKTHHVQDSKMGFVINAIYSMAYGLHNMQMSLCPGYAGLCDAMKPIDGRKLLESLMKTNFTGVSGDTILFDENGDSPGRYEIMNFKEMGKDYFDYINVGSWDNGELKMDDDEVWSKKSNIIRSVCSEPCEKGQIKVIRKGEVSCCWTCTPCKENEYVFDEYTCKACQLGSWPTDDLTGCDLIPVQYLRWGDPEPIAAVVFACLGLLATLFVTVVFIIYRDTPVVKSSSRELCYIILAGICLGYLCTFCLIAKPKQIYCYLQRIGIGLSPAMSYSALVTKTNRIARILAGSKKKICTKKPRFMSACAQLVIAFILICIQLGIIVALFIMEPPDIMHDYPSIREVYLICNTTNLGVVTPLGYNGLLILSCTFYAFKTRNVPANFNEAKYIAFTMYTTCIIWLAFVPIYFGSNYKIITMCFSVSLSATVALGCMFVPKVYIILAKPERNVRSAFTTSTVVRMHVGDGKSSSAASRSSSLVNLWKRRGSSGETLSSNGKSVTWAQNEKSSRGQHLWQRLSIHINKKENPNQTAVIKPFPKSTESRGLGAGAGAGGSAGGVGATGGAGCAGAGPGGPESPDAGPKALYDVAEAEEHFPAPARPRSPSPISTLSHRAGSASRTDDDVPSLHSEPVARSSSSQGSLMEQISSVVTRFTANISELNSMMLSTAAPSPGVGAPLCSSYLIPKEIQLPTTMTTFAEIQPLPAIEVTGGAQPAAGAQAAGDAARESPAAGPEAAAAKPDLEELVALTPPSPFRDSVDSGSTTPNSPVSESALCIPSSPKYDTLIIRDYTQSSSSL

SMILES	EC50 [nM]	Emax [%]
COC1C(=O)N(c2ncc(C#Cc3cccc(F)c3)cn2)CC1(C)C (racemic) [Example 130, (RS)-1-[5-(3-Fluoro-phenylethynyl)-pyrimidin-2-yl]-3-methoxy-4,4-dimethyl-pyrrolidin-2-one]	41	74
O=C1OC2(CCCCC2)CN1c1ccc(C#Cc2ccccc2)cn1 [Example 12, 3-(5-Phenylethynyl-pyridin-2-yl)-1-oxa-3-aza-spiro[4.5]decan-2-one]	67	80
CO[C@H]1C(=O)N(c2ncc(C#Cc3ccccc3)cn2)CC1(C)C (single isomer, unassigned) [Example 129]	18	90
CC1(C)CCN(c2ccc(C#Cc3cccc(Cl)c3)cn2)C(=O)O1 [Example 77, 3-[5-(3-Chloro-phenylethynyl)-pyridin-2-yl]-6,6-dimethyl-[1,3]oxazinan-2-one]	12	72
CC1(C)CCCN(c2ccc(C#Cc3ccccc3)cn2)C(=O)O1 [Example 93, 7,7-Dimethyl-3-(5-phenylethynyl-pyridin-2-yl)-[1,3]oxazepan-2-one]	36	104
CN1C(=O)N(c2ccc(C#Cc3ccccc3)cn2)CC12CCCC2 [Example 44, 1-Methyl-3-(5-phenylethynyl-pyridin-2-yl)-1,3-diaza-spiro[4.4]nonan-2-one]	29	92
CO[C@H]1C(=O)N(c2ccc(C#Cc3ccccc3)cn2)CC1(C)C (single isomer, unassigned) [Example 62]	12	86
O=C1CC2(COC2)CN1c1ccc(C#Cc2ccccc2)cn1 [Example 82, 6-(5-Phenylethynyl-pyridin-2-yl)-2-oxa-6-aza-spiro[3.4]octan-7-one]	57	72
CO[C@@H]1C(=O)N(c2ncc(C#Cc3cccc(F)c3)cn2)CC1(C)C (single isomer, unassigned) [Example 131, (R or S)-1-[5-(3-Fluoro-phenylethynyl)-pyrimidin-2-yl]-3-methoxy-4,4-dimethyl-pyrrolidin-2-one]	35	48
CC1(C)CN(c2ccc(C#Cc3ccccc3)cn2)C(=O)O1 [Example 5, 5,5-Dimethyl-3-(5-phenylethynyl-pyridin-2-yl)-oxazolidin-2-one]	7	77
COC[C@H]1CN(c2ccc(C#Cc3ccccc3)cn2)C(=O)O1 (single isomer, unassigned) [Example 3, (5R or 5S)-5-Methoxymethyl-3-(5-phenylethynyl-pyridin-2-yl)-oxazolidin-2-one]	18	46
COCC1CN(c2ccc(C#Cc3ccccc3)cn2)C(=O)O1 (racemic) [Example 2, (5RS)-5-Methoxymethyl-3-(5-phenylethynyl-pyridin-2-yl)-oxazolidin-2-one]	47	34
CC1(C)CCN(c2cnc(C#Cc3cccnc3)cn2)C(=O)C1 [Example 162, 4,4-Dimethyl-1-(5-(pyridin-3-ylethynyl)pyrazin-2-yl)piperidin-2-one]	681	76
CC1(C)CN(c2ccc(C#Cc3cccnc3)cn2)C(=O)O1 [Example 7, 5,5-Dimethyl-3-(5-pyridin-3-ylethynyl-pyridin-2-yl)-oxazolidin-2-one]	33	39
CCN1C(=O)N(c2ccc(C#Cc3ccccc3)cn2)CC1(C)C [Example 17, 3-Ethyl-4,4-dimethyl-1-(5-phenylethynyl-pyridin-2-yl)-imidazolidin-2-one]	66	103
O=C1O[C@H]2CCC[C@H]2N1c1ccc(C#Cc2ccccc2)cn1 (racemic) [Example 22, (3aRS,6aSR)-3-(5-Phenylethynyl-pyridin-2-yl)-hexahydro-cyclopentaoxazol-2-one]	14	74
CN1C(=O)N(c2ccc(C#Cc3ccccc3)cn2)CC1C1CCCC1 (racemic) [Example 45, (RS)-4-Cyclopentyl-3-methyl-1-(5-phenylethynyl-pyridin-2-yl)-imidazolidin-2-one]	57	97
CO[C@@H]1C(=O)N(c2ncc(C#Cc3cc(F)ccc3F)cn2)CC1(C)C (single isomer, unassigned) [Example 133, (R or S)-1-[5-(2,5-Difluoro-phenylethynyl)-pyrimidin-2-yl]-3-methoxy-4,4-dimethyl-pyrrolidin-2-one]	57	49
CN1C(=O)N(c2ccc(C#Cc3ccccc3)cn2)[C@@H]2CCC[C@@H]21 (racemic) [Example 106, (3aRS, 6aSR)-1-methyl-3-(5-(phenylethynyl)pyridin-2-yl)hexahydrocyclopenta[d]imidazol-2(1H)-one]	30	42
CCN1C(=O)N(c2ncc(C#Cc3ccc(F)cc3)cn2)CC1(C)C [Example 143, 1-[5-(4-Fluoro-phenylethynyl)-pyrimidin-2-yl]-3-ethyl-4,4-dimethyl-imidazolidin-2-one]	47	68
O=C1O[C@H]2CCC[C@H]2N1c1ccc(C#Cc2cncc(F)c2)cn1 (racemic) [Example 24, (3aRS,6aSR)-3-[5-(5-Fluoro-pyridin-3-ylethynyl)-pyridin-2-yl]-hexahydro-cyclopentaoxazol-2-one]	35	73
CN1C(=O)N(c2cnc(C#Cc3cccc(F)c3)cn2)CC1(C)C [Example 158, 1-(5-((3-Fluorophenyl)ethynyl)pyrazin-2-yl)-3,4,4-trimethylimidazolidin-2-one]	46	36
CC1(C)CCN(c2cnc(C#Cc3cccc(F)c3)cn2)C(=O)C1 [Example 161, 1-(5-((3-Fluorophenyl)ethynyl)pyrazin-2-yl)-4,4-dimethylpiperidin-2-one]	29	68
CN1C(=O)N(c2ncc(C#Cc3cccc(F)c3)cn2)CC1(C)C [Example 123, 1-[5-(3-Fluoro-phenylethynyl)-pyrimidin-2-yl]-3,4,4-trimethyl-imidazolidin-2-one]	18	30
CC1(C)CN(c2ccc(C#Cc3ccccc3)cn2)C(=O)C1O (racemic) [Example 14, (3RS)-3-Hydroxy-4,4-dimethyl-1-(5-phenylethynyl-pyridin-2-yl)-pyrrolidin-2-one]	388	114
CN1CC(C)(C)CN(c2ccc(C#Cc3ccccc3)cn2)C1=O [Example 26, 1,5,5-Trimethyl-3-(5-phenylethynyl-pyridin-2-yl)-tetrahydro-pyrimidin-2-one]		131
O=C1[C@H]2CCC[C@H]2N1c1ccc(C#Cc2cccnc2)cn1 (racemic) [Example 98, (1RS,5SR)-6-(5-Pyridin-3-ylethynyl-pyridin-2-yl)-6-aza-bicyclo[3.2.0]heptan-7-one]	39	73
COC1C(=O)N(c2ccc(C#Cc3cncc(Cl)c3)cn2)CC1(C)C (racemic) [Example 63, (RS)-1-[5-(5-Chloro-pyridin-3-ylethynyl)-pyridin-2-yl]-3-methoxy-4,4-dimethyl-pyrrolidin-2-one]	70	99
